The values below are quoted from earlier work in patent US10716771B2, “Pharmaceutical composition for preventing or treating immune diseases or inflammatory diseases, containing biguanide derivative compound as active ingredient” (THE CATHOLIC UNIVERSITY OF KOREA INDUSTRY-ACADEMIC …, priority 2013, dated 2020).

Each structure is given as a SMILES string.

This data set relates to TNF-α. The conditions noted are these: stated as known; cited from earlier work.

Consider `CN(C)C(=N)N=C(N)N` [Metformin], for which the “effect of blocking TNF-α” value was “slight effect”.
